Measurements from patent US4061645A, “2-Trichloromethyl-5-methylsulfinyl-1,3,4-thiadiazole” (Schering Aktiengesellschaft, priority 1972, dated 1977).

Assays:
[1] = test system: Asperqilus niger; assay: Agar test (Example 7), Aspergillus; type: cell-based; conditions: 10 ppm; 5 days at 22° C; control 100
Experimental: (§1) The fungicidal action of the agents according to the invention was tested in artificial nutrient media against plant-pathogenic fungi in Petri dishes (agar test). The procedure was to sterilize the medium consisting of 2% malt extract and 1.5% agar-agar powder. Before the solidification of the medium, the active substances were added to it, mixing thoroughly, so that the medium received 10 parts of active substance per million (ppm). After the solidification of the medium, the latter was inoculated with a platinum dropper which contained 100 spores each of the fungi to be tested, and after five days at 22° C, an evaluation was made by measuring the diameter of the colonies in mm.

[2] = test system: Thielaviopsis basicola; assay: Control of Thielaviopsis basicola on tobacco (Example 10); type: in vivo; design: key to Attack 0-5: 0: no attack; 1: very slight attack; 2: slight attack; 3: medium attack; 4: strong attack; 5: very strong attack; conditions: five weeks
Experimental: Control of Thielaviopsis basicola on tobacco.
A 10% powder preparation of 2-trifluoromethyl-5-methylsulfonyl-1,3,4-thiadiazole was homogeneously admixed to a soil heavily infested by Thielaviopsis basicola. After a reaction time of one week, tobacco seedlings of the variety Nicotiana tabacum var. "White Burley" were set out and cultivated for five weeks in the greenhouse at 22°-32° C. The attack and weight of the fresh plant are evident from the table.

[3] = test system: Helminthosporium sativum; assay: Agar test (Example 7), Helminthosporium; type: cell-based; conditions: 10 ppm; 5 days at 22° C; control 100
Experimental: as §1

[4] = test system: Pythium ultimum; assay: Pythium ultimum infested compost soil, marrow peas (Example 2); type: in vivo; conditions: for Weight of fresh plant: 3 weeks; for Number of sound peas after 3 wks.: of 25 grains
Excerpt: Steamed compost soil was inoculated with mycelium of Pythium ultimum.

[5] = test system: Colletotrichum gloeosporioides; assay: Agar test (Example 7), Colletotrichum; type: cell-based; conditions: 10 ppm; 5 days at 22° C; control 100
Experimental: as §1

[6] = test system: Stemphylium ilicis; assay: Agar test (Example 7), Stemphylium; type: cell-based; conditions: 10 ppm; 5 days at 22° C; control 100
Experimental: as §1

[7] = test system: Botrytis cinerea; assay: Agar test (Example 7), Botrytis; type: cell-based; conditions: 10 ppm; 5 days at 22° C; control 100
Experimental: as §1

[8] = test system: Rhizoctonia solani; assay: Limit concentration of soil-fungicidal effectiveness, Rhizoctonia solani, infested soil seeded with peas (Example 1); type: in vivo; conditions: soil, 480 h, 20 to 23 days, 22°-25° C, read-out: Limit concentration of the fungicidal effectiveness
Experimental: Limit concentrations of the soil-fungicidal effectiveness at homogeneous mixture of the products with the infested soil. Basic condition in the evaluation are a sound root formation without fungus necroses and germination of the seed of at least 90% compared with the result obtained in steamed soil. Per concentration there were seeded 25 grains of peas of the variety "Miracle of Kelvedon" (marrow pea) without a waiting period. The cultivation time in the tests was 20 to 23 days at a temperature of 22°-25° C. Four commercial products were included in the test series.
Rhizoctania solani: -- Steamed compost soil was inoculated with mycelium of Rhizoctonia solani.

[9] = test system: Meloidogyne incognita; assay: Nematocidal action, infested compost soil, cucumber seeds (Example 8); type: in vivo; conditions: 30 days
Experimental: The products as 20% powder preparations were homogeneously admixed with a compost soil heavily infested by root gal nematodes. Without a waiting period, 20 cucumber seeds per concentration were seeded. After a cultivation time of 30 days at a temperature of 23°-25° C, the nematocidal action was evaluated by counting the root galls formed in the waterbath. The following table states the reduction of attack in percent. In the control, an average of 90 root galls per seedling had formed.

[10] = test system: Fusarium oxysporum f. callistephi; assay: Fusarium infested compost soil, Callistephus chinesis seedlings (Example 5); type: in vivo; conditions: of 4 seedlings
Excerpt: Steamed compost soil was inoculated with a spore suspension of Fusarium oxysporum f. callistephi. After homogeneous mixture of the products with the infested soil, the products were present as 20% powder preparations, and after a waiting period of 8 days, there were set out per concentration 4 seedlings of Callistephus chinesis, master aster "Sun Ray" as host plants.

[11] = test system: Rhizoctonia solani; assay: Rhizoctonia solani infested compost soil, marrow peas (Example 3); type: in vivo; conditions: for Weight of fresh plant: 3 weeks; for Number of sound peas after 3 wks.: of 25 grains
Excerpt: Steamed compost soil was inoculated with mycelium of Rhizoctonia solani. After homogeneous mixture of the products with the infested soil, the products were present in the form of 20% powder preparations, the seeding of 25 grains of marrow peas of the variety "Miracle of Kelvedon" per concentration was effected without waiting period in clay dishes holding 1 liter of soil. The table lists the number of germinated sound peas, the weight of the fresh plant, and a root evaluation after a cultivation period of three weeks at 22°-25° C.

[12] = 20 mg active ingr. per liter of soil
[13] = 30 mg active ingr. per liter of soil
[14] = 40 mg active ingr. per liter of soil
[15] = 10 mg active ingr. per liter of soil
[16] = 50 mg active ingredient per liter of soil
[17] = 100 mg active ingredient per liter of soil
[18] = 200 mg active ingr. per liter of soil

| SMILES | diameter of the colonies [1] | diameter of the colonies [3] | diameter of the colonies [5] | diameter of the colonies [6] | diameter of the colonies [7] | minimal effective concentration [8] | further results |
| --- | --- | --- | --- | --- | --- | --- | --- |
| CS(=O)(=O)c1nnc(C(F)(F)F)s1 [Compound 1, 2-trifluoromethyl-5-methylsulfonyl-1,3,4-thiadiazole] | 0 mm | 0 mm | 0 mm | 0 mm | 0 mm | 25 µg/mL | Attack 0-5 [2, 12]: 0.5; Weight of fresh plant (leaves and stems) [2, 12]: 115 g; Weight of roots (air-dry) [2, 12]: 11 g; Attack 0-5 [2, 13]: 0; Weight of fresh plant (leaves and stems) [2, 13]: 118 g; Weight of roots (air-dry) [2, 13]: 11 g; Attack 0-5 [2, 14]: 0; Weight of fresh plant (leaves and stems) [2, 14]: 104 g; Weight of roots (air-dry) [2, 14]: 9 g; Weight of fresh plant [4, 15]: 20 g; Number of sound peas after 3 wks. [4, 15]: 25; Weight of fresh plant [4, 12]: 19 g; Number of sound peas after 3 wks. [4, 12]: 22; Weight of fresh plant [4, 13]: 19 g; Number of sound peas after 3 wks. [4, 13]: 23 |
| CC[S+]([O-])c1nnc(C(Cl)Cl)s1 (stereo not shown) [Compound 4, 2-dichloromethyl-5-ethylsulfinyl-1,3,4-thiadiazole] | – | – | – | – | – | 20 µg/mL | Nematocidal action in % (reduction of attack) ([9]; 40 mg per liter of soil): 96%; Nematocidal action in % (reduction of attack) ([9]; 60 mg per liter of soil): 99% |
| CCC[S+]([O-])c1nnc(C(Cl)Cl)s1 (stereo not shown) [Compound 5, 2-dichloromethyl-5-propylsulfinyl-1,3,4-thiadiazole] | – | – | – | – | – | 20 µg/mL | Nematocidal action in % (reduction of attack) ([9]; 40 mg per liter of soil): 90%; Nematocidal action in % (reduction of attack) ([9]; 60 mg per liter of soil): 98% |
| CC[S+]([O-])c1nnc(C(Cl)(Cl)Cl)s1 (stereo not shown) [Compound 9, 2-trichloromethyl-5-ethylsulfinyl-1,3,4-thiadiazole] | 0 mm | 0 mm | 0 mm | 0 mm | 0 mm | 10 µg/mL | Number of attacked plants after 3 weeks [10, 16]: 0; Number of attacked plants after 3 weeks [10, 17]: 0; Weight of fresh plant [11, 15]: 18 g; Number of sound peas after 3 wks. [11, 15]: 22; Weight of fresh plant [11, 12]: 16 g; Number of sound peas after 3 wks. [11, 12]: 22; Weight of fresh plant [11, 13]: 17 g; Number of sound peas after 3 wks. [11, 13]: 23 |
| CCS(=O)(=O)c1nnc(C(Cl)Cl)s1 [Compound 18, 2-dichloromethyl-5-ethylsulfonyl-1,3,4-thiadiazole] | 0 mm | 0 mm | 41 mm | 0 mm | 13 mm | 100 µg/mL | Nematocidal action in % (reduction of attack) ([9]; 40 mg per liter of soil): 61%; Nematocidal action in % (reduction of attack) ([9]; 60 mg per liter of soil): 90% |
| CCCS(=O)(=O)c1nnc(C(Cl)Cl)s1 [Compound 19, 2-dichloromethyl-5-propylsulfonyl-1,3,4-thiadiazole] | 0 mm | 0 mm | 0 mm | 0 mm | 0 mm | 50 µg/mL | Nematocidal action in % (reduction of attack) ([9]; 40 mg per liter of soil): 72%; Nematocidal action in % (reduction of attack) ([9]; 60 mg per liter of soil): 82%; Number of attacked plants after 3 weeks [10, 16]: 0; Number of attacked plants after 3 weeks [10, 17]: 0 |
| CCS(=O)(=O)c1nnc(C(Cl)(Cl)Cl)s1 [Compound 22, 2-trichloromethyl-5-ethylsulfonyl-1,3,4-thiadiazole] | 0 mm | 0 mm | 0 mm | 0 mm | 0 mm | 50 µg/mL | Number of attacked plants after 3 weeks [10, 16]: 0; Number of attacked plants after 3 weeks [10, 17]: 0 |
| CCCS(=O)(=O)c1nnc(C(Cl)(Cl)Cl)s1 [Compound 23, 2-trichloromethyl-5-propylsulfonyl-1,3,4-thiadiazole] | 0 mm | 0 mm | 0 mm | 0 mm | 0 mm | 30 µg/mL | Weight of fresh plant [11, 15]: 9 g; Number of sound peas after 3 wks. [11, 15]: 13; Weight of fresh plant [11, 12]: 17 g; Number of sound peas after 3 wks. [11, 12]: 21; Weight of fresh plant [11, 13]: 20 g; Number of sound peas after 3 wks. [11, 13]: 24 |
| CCCCS(=O)(=O)c1nnc(C(Cl)(Cl)Cl)s1 [Compound 25, 2-trichloromethyl-5-butylsulfonyl-1,3,4-thiadiazole] | 0 mm | 0 mm | 0 mm | 0 mm | 0 mm | 25 µg/mL | Number of attacked plants after 3 weeks [10, 16]: 0; Number of attacked plants after 3 weeks [10, 17]: 0 |
| CCCCCCS(=O)(=O)c1nnc(C(Cl)(Cl)Cl)s1 [Compound 27, 2-trichloromethyl-5-hexylsulfonyl-1,3,4-thiadiazole] | 0 mm | 0 mm | 0 mm | 0 mm | 0 mm | 25 µg/mL | – |
| CCCCCCCS(=O)(=O)c1nnc(C(Cl)(Cl)Cl)s1 [Compound 28, 2-trichloromethyl-5-heptylsulfonyl-1,3,4-thiadiazole] | 0 mm | 0 mm | 0 mm | 0 mm | 0 mm | 200 µg/mL | – |
| CCCCCCCCS(=O)(=O)c1nnc(C(Cl)(Cl)Cl)s1 [Compound 29, 2-trichloromethyl-5-octylsulfonyl-1,3,4-thiadiazole] | 19 mm | 0 mm | 0 mm | 0 mm | 18 mm | > 200 µg/mL | – |
| CS(=O)(=O)c1nnc(C(Br)Br)s1 [Compound 32, 2-dibromomethyl-5-methylsulfonyl-1,3,4-thiadiazole] | 0 mm | 0 mm | 0 mm | 0 mm | 0 mm | 50 µg/mL | – |
| S=C([S-])NCCNC(=S)[S-].[Zn+2] [Zinc ethylene-bis-dithiocarbamate, zinc-ethylene-bis-dithiocarbamate, reference compound] | 78 mm | 50 mm | 81 mm | 55 mm | 36 mm | – | Weight of fresh plant [4, 18]: 7 g; Number of sound peas after 3 wks. [4, 18]: 14 |
